Experimental data as given in ChEMBL document CHEMBL1250451, “Mechanistic insights into a Ca2+-dependent family of alpha-mannosidases in a human gut symbiont” (Nat Chem Biol, 2010).

Legend:
Assay type in all cases: protein assay
[1] = molecular target: T1, Alpha-1,2-mannosidase (BT_2199) (Bacteroides thetaiotaomicron) (UniProt Q8A5N9); test: Activity of Bacteroides thetaiotaomicron GH92 alpha-mannosidase 2199 assessed as recovery of enzyme activity at 1 mM in absence of metal and in presence of 5 mM EDTA in 100 mM pH 7 MOPS buffer relative to enzyme activity in presence of calcium
T1 sequence (whole entry): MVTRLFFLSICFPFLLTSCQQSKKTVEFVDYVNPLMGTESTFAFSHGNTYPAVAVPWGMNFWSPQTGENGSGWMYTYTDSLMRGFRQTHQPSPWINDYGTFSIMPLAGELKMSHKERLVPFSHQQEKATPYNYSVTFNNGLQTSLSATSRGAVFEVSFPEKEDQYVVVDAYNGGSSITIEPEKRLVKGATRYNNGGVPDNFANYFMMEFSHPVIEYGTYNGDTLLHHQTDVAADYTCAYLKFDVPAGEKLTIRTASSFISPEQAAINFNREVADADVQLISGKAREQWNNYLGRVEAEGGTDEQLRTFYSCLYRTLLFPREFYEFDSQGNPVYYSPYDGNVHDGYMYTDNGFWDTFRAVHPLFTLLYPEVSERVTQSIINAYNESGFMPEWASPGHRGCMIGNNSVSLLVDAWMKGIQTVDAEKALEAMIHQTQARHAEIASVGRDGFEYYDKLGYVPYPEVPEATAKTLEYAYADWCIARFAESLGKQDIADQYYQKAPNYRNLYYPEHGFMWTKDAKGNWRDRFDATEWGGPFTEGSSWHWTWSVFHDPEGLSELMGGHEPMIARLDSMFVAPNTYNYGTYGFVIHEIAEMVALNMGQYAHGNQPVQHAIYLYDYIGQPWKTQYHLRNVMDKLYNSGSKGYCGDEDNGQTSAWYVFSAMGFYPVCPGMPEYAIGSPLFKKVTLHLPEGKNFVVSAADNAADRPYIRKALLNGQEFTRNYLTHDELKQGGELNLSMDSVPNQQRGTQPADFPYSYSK

[2] = molecular target: T1, Alpha-1,2-mannosidase (BT_2199) (Bacteroides thetaiotaomicron); test: Activity of Bacteroides thetaiotaomicron GH92 alpha-mannosidase 2199 assessed as recovery of enzyme activity at 1 mM in presence of 7 mM Zn(2+) ions and in presence of 5 mM EDTA in 100 mM pH 7 MOPS buffer relative to enzyme activity in presence of calcium
[3] = molecular target: T1, Alpha-1,2-mannosidase (BT_2199) (Bacteroides thetaiotaomicron); test: Activity of Bacteroides thetaiotaomicron GH92 alpha-mannosidase 2199 assessed as recovery of enzyme activity at 1 mM in presence of 7 mM Mg(2+) ions and in presence of 5 mM EDTA in 100 mM pH 7 MOPS buffer relative to enzyme activity in presence of calcium
[4] = molecular target: T1, Alpha-1,2-mannosidase (BT_2199) (Bacteroides thetaiotaomicron); test: Activity of Bacteroides thetaiotaomicron GH92 alpha-mannosidase 2199 assessed as recovery of enzyme activity at 1 mM in presence of 7 mM Co(2+) ions and in presence of 5 mM EDTA in 100 mM pH 7 MOPS buffer relative to enzyme activity in presence of calcium
[5] = molecular target: T1, Alpha-1,2-mannosidase (BT_2199) (Bacteroides thetaiotaomicron); test: Activity of Bacteroides thetaiotaomicron GH92 alpha-mannosidase 2199 assessed as recovery of enzyme activity at 1 mM in presence of 7 mM Sc(3+) ions and in presence of 5 mM EDTA in 100 mM pH 7 MOPS buffer relative to enzyme activity in presence of calcium
[6] = molecular target: T1, Alpha-1,2-mannosidase (BT_2199) (Bacteroides thetaiotaomicron); test: Activity of Bacteroides thetaiotaomicron GH92 alpha-mannosidase 2199 assessed as recovery of enzyme activity at 1 mM in presence of 7 mM Co(2+) ions and in presence of 5 mM EGTA in 100 mM pH 7 MOPS buffer relative to enzyme activity in presence of calcium
[7] = molecular target: T2, Alpha-1,2-mannosidase (BT_3990) (Bacteroides thetaiotaomicron) (UniProt Q8A0N1); test: Activity of Bacteroides thetaiotaomicron GH92 alpha-mannosidase 3990 assessed as recovery of enzyme activity at 1 mM in absence of metal and in presence of 5 mM EDTA in 100 mM pH 7 MOPS buffer relative to enzyme activity in presence of calcium
T2 sequence (whole entry): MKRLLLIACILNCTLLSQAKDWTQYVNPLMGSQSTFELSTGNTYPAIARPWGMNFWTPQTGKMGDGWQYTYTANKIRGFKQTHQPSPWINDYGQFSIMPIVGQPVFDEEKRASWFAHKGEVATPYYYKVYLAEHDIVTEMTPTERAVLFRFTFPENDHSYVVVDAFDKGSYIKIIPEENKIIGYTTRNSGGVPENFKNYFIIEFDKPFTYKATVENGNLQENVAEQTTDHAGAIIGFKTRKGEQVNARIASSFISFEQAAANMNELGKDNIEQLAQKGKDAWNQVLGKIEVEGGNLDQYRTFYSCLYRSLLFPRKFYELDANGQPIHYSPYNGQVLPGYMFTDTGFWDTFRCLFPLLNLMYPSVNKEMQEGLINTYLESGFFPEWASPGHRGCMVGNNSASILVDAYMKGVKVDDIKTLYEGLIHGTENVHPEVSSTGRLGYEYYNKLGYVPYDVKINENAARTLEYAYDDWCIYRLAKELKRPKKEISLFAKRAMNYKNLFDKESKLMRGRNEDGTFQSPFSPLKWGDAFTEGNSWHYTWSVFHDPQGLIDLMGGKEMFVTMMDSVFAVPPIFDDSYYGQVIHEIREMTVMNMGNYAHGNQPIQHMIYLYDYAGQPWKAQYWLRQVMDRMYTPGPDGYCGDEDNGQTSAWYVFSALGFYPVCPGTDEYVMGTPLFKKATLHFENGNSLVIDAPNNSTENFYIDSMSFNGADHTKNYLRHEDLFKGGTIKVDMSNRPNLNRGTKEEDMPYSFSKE

[8] = molecular target: T2, Alpha-1,2-mannosidase (BT_3990) (Bacteroides thetaiotaomicron); test: Activity of Bacteroides thetaiotaomicron GH92 alpha-mannosidase 3990 assessed as recovery of enzyme activity at 1 mM in presence of 7 mM Ca(2+) ions and in presence of 5 mM EDTA in 100 mM pH 7 MOPS buffer relative to enzyme activity in presence of calcium
[9] = molecular target: T2, Alpha-1,2-mannosidase (BT_3990) (Bacteroides thetaiotaomicron); test: Activity of Bacteroides thetaiotaomicron GH92 alpha-mannosidase 3990 assessed as recovery of enzyme activity at 1 mM in presence of 7 mM Ti(3+) ions and in presence of 5 mM EDTA in 100 mM pH 7 MOPS buffer relative to enzyme activity in presence of calcium
[10] = molecular target: T2, Alpha-1,2-mannosidase (BT_3990) (Bacteroides thetaiotaomicron); test: Activity of Bacteroides thetaiotaomicron GH92 alpha-mannosidase 3990 assessed as recovery of enzyme activity at 1 mM in presence of 7 mM Zn(2+) ions and in presence of 5 mM EGTA in 100 mM pH 7 MOPS buffer relative to enzyme activity in presence of calcium
[11] = molecular target: T2, Alpha-1,2-mannosidase (BT_3990) (Bacteroides thetaiotaomicron); test: Activity of Bacteroides thetaiotaomicron GH92 alpha-mannosidase 3990 assessed as recovery of enzyme activity at 1 mM in presence of 7 mM Be(2+) ions and in presence of 5 mM EGTA in 100 mM pH 7 MOPS buffer relative to enzyme activity in presence of calcium
[12] = molecular target: T2, Alpha-1,2-mannosidase (BT_3990) (Bacteroides thetaiotaomicron); test: Activity of Bacteroides thetaiotaomicron GH92 alpha-mannosidase 3990 assessed as recovery of enzyme activity at 1 mM in presence of 7 mM V(3+) ions and in presence of 5 mM EGTA in 100 mM pH 7 MOPS buffer relative to enzyme activity in presence of calcium

Activity [1]: 0%
Activity [2]: 0%
Activity [3]: 0%
Activity [4]: 7%
Activity [5]: 0%
Activity [6]: 12%
Activity [7]: 0%
Activity [8]: 100%
Activity [9]: 0%
Activity [10]: 0%
Activity [11]: 0%
Activity [12]: 0%
SMILES: O=[N+]([O-])c1ccc(O[C@H]2O[C@H](CO)[C@@H](O)[C@H](O)[C@@H]2O)cc1
